# Laboratory results as given in patent US5411942A, “Peptide derivative, pharmaceutical preparation containing it and method for treatment of glaucoma” (Carlbiotech Ltd. A/S, priority 1989, dated 1995).
# Peptide text beside a SMILES is read from it. * marks the point of attachment. Acm = CC(=O)NC*
# How the values were obtained:
# mice = experiment: Intravenous tolerance in mice; format: in vivo; conditions: doses as high as 40 mg/kg intravenously
# rats [1] = experiment: Intravenous tolerance in rats; format: in vivo; conditions: doses as high as 40 mg/kg intravenously
# rats [2] = experiment: Subcutaneous toxicity in rats, also prolonged for a month; format: in vivo; conditions: subcutaneous administration of similar doses in rats, also prolonged treatment for a month
# blood pressure = conditions: e.g. at 10 mg/kg in rats
# Salmonella strains = conditions: Ames test on Salmonella strains
# rabbit's eye = conditions: 5% solution as eye drops in rabbit's eye, even after treatment over a month
# anterior sclera = conditions: Ussing chamber, glutathione bicarbonate Ringer's solution
# [3] = tested on: antibodies in serum samples; conditions: serum of rats treated subcutaneously for one month in large doses
# [4] = tested on: stress induced ocular hypertensive rabbits; experiment: Stress induced ocular hypertension in the rabbit eye, treatment started after pressure elevation; format: in vivo; conditions: for IOP lowering efficiency in relation to Timolol / Initial Pressure (Unstressed) / Pressure after 5 days of stress (Treatment starts) / Pressure after 10 days of stress (5 days of treatment) / Change in IOP: Example 6; for Initial Pressure (Unstressed): baseline before stress; for Pressure after 5 days of stress (Treatment starts) / Pressure after 5 days: before treatment; for Pressure after 10 days of stress (5 days of treatment): stress continued; for Change in IOP: day 10 versus day 5; for Pressure after 5 days / Initial Pressure / Pressure after 10 days (5 days of treatment): Example 8; for Pressure after 5 days: after 5 day stress induction; for Initial Pressure: baseline; for Pressure after 10 days (5 days of treatment): 2 drops four times for 5 days
# Method: (§1) The main feature of this clinical model is a stress induced elevation of the intraocular pressure in the rabbit eye above the initial and normal value. The stress is exerted, i.e. applied, in the form of measuring the pressure (at 12 hour intervals) with the help of a SHIOTZ-Tonometer, which is loaded with 7.5 grams.
# (§2) Adult rabbits of random breed and sex in groups of n=3-10 were employed. Weight 2,5-3,0 kg. The peptide was a freeze-dried powder, and was applied to the rabbit eye as a powder, or as drops, dissolved in 0.9% NaCl aqueous solution. Positive control was the commercial glaucoma drugs, either timololor pilocarpin, and negative control was 0.9% NaCl solution in water.
# on stress induced ocular hypertensive rabbits. […] The amount of peptide per treatment was thus 3.75 mg which corresponds on a molar basis to the amount of Timolol used per treatment.
# The local treatment was started on day 5 of glaucoma induction (i.e. afer 10 stress units), and the stress, that is the trauma, was continued during the treatment with the peptide.
# A 1% and 0.1% solution of the peptide in 0.9% NaCl aqueous solution was applied four times (2 drops each time) for 5 days after an initial 5 day stress induction period. (Stress units at 12 hour intervals).
# [5] = tested on: experimentally hypertensive rabbit eye; experiment: Antagonizing effect on stress induced intraocular pressure in the rabbit eye, treatment simultaneous with stress; format: in vivo; conditions: for Change in pressure / Pressure after 5 1/5 / Initial Pressure: Example 9; for Change in pressure / Pressure after 5 1/5: 11 stress units, peptides as drops of 0.5% solution 3× daily; for Initial Pressure: baseline
# Method: as §1, §2
# 20 mg peptide was dissolved in 0.6 ml 0.9% NaCl aqueous solution and applied in aliquots of 60 μl four times daily over a period of 2.5 days.
# The treatment was started at the beginning of the experiment simultaneously with stress units. Five stress units were applied at 12 hour intervals.
# Stress units were applied at 12 hour intervals over a period of 51/2 days, i.e. 11 stress units. The peptides were applied 3× daily over this period as drops of a 0.5% solution in 0.9% NaCl in aqueous solutions.
# Stress units were applied at 12 hour intervals over a period of 51/2 days, i.e. 11 stress units. The peptides were applied 3× daily over this period as drops of a 1.0% solution in 0.9% NaCl in aqueous solution.
# [6] = tested on: water load induced hypertension in the rabbit eye; experiment: Water load model, intraocular pressure in rabbits' eyes; format: in vivo; conditions: single dose; for AUC: area under Δ IOP-time curve
# Method: The findings of intraocular pressure lowering effects in the stress induced rabbit model has been confirmed and further studied by using another elevated eye pressure rabbit model. In this model, the widely applied water load model, elevation of the intraocular pressure is achieved by injecting a large volume of sterile water intraperitoneally into the rabbits. Following onset of eye drop treatment in one eye while the other eye is treated with saline placebo, the intraocular pressure of both eyes is then measured at various intervals and the pressure difference between the eyes is taken as an expression of the pharmaceutical effect. In these experiments, pilocarpine, a well-known pressure lowering cholinergic agent, was used as positive control.
# The studies utilized a "water load" animal model.
# Thirty minutes before drug solution installation, rabbits were injected intraperitonally with 60 ml/kg of sterile distilled water for injection (30° C.) spiked with an antibiotic mixture (Sigma P9032).
# At time zero, 50 μl of a drug solution was instilled to one eye and an equal volume of a saline solution was instilled to the other eye. The intraocular pressure in each eye was monitored at the time points indicated. The change in intraocular pressure (IOP) at each time point is computed by subtracting the IOP in the dosed eye from that in the undosed eye.
# From these plots was assessed the maximal IOP effect, the time to reach this and the time for returning to a zero or insignificant level of intraocular pressure lowering effect. These figures may be taken as a measure of potency and duration of effect. As a measure of the full pharmaceutical effect at various dose levels was taken a sum figure of the area under the curves (AUC).
# A 0.5% solution of the peptides or 2.6% pilocarpine nitrate (positive control) in 0.9% NaCl aqueous solution was applied in one eye and 0.9% Nacl, also acting as negative control in the other eye, an IOP was measured in both eyes for 3 hours.
# A 0.25%, 0.5% of 1.0% solution of the peptides in 0.9% aqueous NaCl solution was applied in one eye and 0.9% NaCl to the other eye and IOP was measured in both eyes for 3 hours.
# [7] = tested on: cultured bovine trabecular meshwork cells; experiment: Cultured bovine trabecular meshwork cells incubated with peptide; format: cell-based
# Excerpt: The mechanism, or mechanisms, by way of which the peptides according to the invention work, is so far not known in detail and may be of hitherto unknown types or related to some known mechanisms. With the apparent lack of β-blocking effects, other known mechanisms could be effects on the enzyme carbo-anhydrase or effects on aqueous humour outflow. Some indications of mechanisms of the latter type have been found in in vitro studies. […] The significant decrease in glycosamine uptake with normal synthesis of glycoproteins like fibronectin is taken to indicate an influence on the formation of glycosamino glycans, an important parameter in the regulation of outflow of aqueous humour from the eye.
# [8] = tested on: freshly excised bulbar conjunctiva; conditions: Ussing chamber, glutathione bicarbonate Ringer's solution
# [9] = Example 11, 2.6% pilocarpine nitrate
# [10] = 0.5% peptide, 3.75 mg powder 4× daily
# [11] = cell cultures incubated with the peptide
compound,measurement,setting,value
"CC(=O)NCSC[C@H](NC(=O)[C@@H](NC(=O)CNC(=O)[C@H](CC(C)C)NC(=O)[C@@H](N)CC(N)=O)C(C)C)C(N)=O [AsnLeuGlyValCys(Acm)NH2, H-Asn-Leu-Gly-Val-Cys(Acm)-NH2] (H-NLGVC(Acm)-NH2)",tolerance of intravenous doses,mice,easily tolerated
same,tolerance of intravenous doses,rats [1],easily tolerated
same,toxic or adverse effects,rats [2],no toxic or adverse effects
same,effect on blood pressure,blood pressure,no effect on blood pressure
same,mutagenicity classification,Salmonella strains,non-mutagenic
same,anaesthetic effects,rabbit's eye,neither anaesthetic effects
same,irritant effects,rabbit's eye,nor irritant effects
same,penetration through tissue,anterior sclera,found to penetrate scleral tissue
same,detection of antibodies by ELISA,[3],not been possible to detect such antibodies
"CC(C)(C)NC[C@H](O)COc1nsnc1N1CCOCC1 [Timolol, reference compound]",IOP lowering efficiency in relation to Timolol,[4]; 0.25% Timolol,100%
same,Initial Pressure (Unstressed),[4]; 0.25% Timolol group,19.0 mm Hg
same,Pressure after 5 days of stress (Treatment starts),[4]; 0.25% Timolol group,30.0 mm Hg
same,Pressure after 10 days of stress (5 days of treatment),[4]; 0.25% Timolol,19.5 mm Hg
same,Change in IOP,[4]; 0.25% Timolol,-10.5 mm Hg
same,Change in pressure,[5],+1 mm Hg
same,Pressure after 5 1/5,[5],16 mm Hg
same,Initial Pressure,[5],15 mm Hg
"CC[C@@H]1C(=O)OC[C@@H]1Cc1cncn1C [pilocarpine nitrate, reference compound]",Duration of effect,[6]; [9],120 min
same,Max. response Δ IOP,[6]; [9],-5.0 mm Hg
same,Time to max. response,[6]; [9],30 min
H-Asn-Gly-Gly-Val-Cys(Acm)-NH2 (H-NGGVC(Acm)-NH2; also: acetate salt) [AsnGlyGlyValCys(Acm)NH2],IOP lowering efficiency in relation to Timolol,[4]; 0.5% peptide,150%
same,Pressure after 5 days of stress (Treatment starts),[4]; 0.5% peptide group,32.0 mm Hg
same,Pressure after 10 days of stress (5 days of treatment),[4]; [10],16.5 mm Hg
same,Initial Pressure (Unstressed),[4]; [10],19.0 mm Hg
same,Change in IOP,[4]; 0.5% peptide,-15.5 mm Hg
same,Pressure after 5 days,[4]; 0.1% peptide group,28 mm Hg
same,Initial Pressure,[4]; 0.1% peptide group,18 mm Hg
same,Pressure after 10 days (5 days of treatment),[4]; 0.1% solution,15.5 mm Hg
same,Pressure after 5 days,[4]; 1% peptide group,32 mm Hg
same,Initial Pressure,[4]; 1% peptide group,21 mm Hg
same,Pressure after 10 days (5 days of treatment),[4]; 1% solution,18 mm Hg
same,"Change in IOP After 21/2 days, Absolute","[5]; Example 7, 20 mg in 0.6 ml saline, 60 μl four times daily for 2.5 days, five stress units",-4.7 mm/Hg
same,"Change in IOP After 21/2 days, Relative to Control","[5]; Example 7, relative to 0.9% saline",-9.2 mm/Hg
same,Change in pressure,[5],0 mm Hg
same,Pressure after 5 1/5,[5],14 mm Hg
same,Initial Pressure,[5],14 mm Hg
same,Duration of effect,"[6]; Example 11, 0.5% solution",120 min
same,Time to max. response,"[6]; Example 11, 0.5% solution",30 min
same,Max. response Δ IOP,"[6]; Example 11, 0.5% solution, IOP followed 3 hours",-5.0 mm Hg
same,Duration of effect,"[6]; Example 12, Conc. 0.25%",80 min
same,Max resp. Δ IOP,"[6]; Example 12, Conc. 0.25%",-2.0 mm Hg
same,Time to max. resp.,"[6]; Example 12, Conc. 0.25%",30 min
same,AUC,"[6]; Example 12, Conc. 0.25%",160 mm Hg×min
same,Duration of effect,"[6]; Example 12, Conc. 0.5%",120 min
same,Max resp. Δ IOP,"[6]; Example 12, Conc. 0.5%",-5.0 mm Hg
same,Time to max. resp.,"[6]; Example 12, Conc. 0.5%",30 min
same,AUC,"[6]; Example 12, Conc. 0.5%",360 mm Hg×min
same,Duration of effect,"[6]; Example 12, Conc. 1.0%",120 min
same,Max resp. Δ IOP,"[6]; Example 12, Conc. 1.0%",-4.0 mm Hg
same,Time to max. resp.,"[6]; Example 12, Conc. 1.0%",30 min
same,AUC,"[6]; Example 12, Conc. 1.0%",410 mm Hg×min
same,cell growth and ultrastructure,[7]; [11],normal growth and ultrastructure
same,effect on collagen and fibronectin synthesis,[7]; [11],no effect
same,uptake of glycosamines,[7]; cultured bovine trabecular meshwork cells,marked and significant decrease
same,penetration through tissue,[8],found to penetrate both tissues
same,penetration through tissue,anterior sclera,found to penetrate both tissues
